Source: US10001485B2, “Methods for sensitizing a quiescent cancer stem cell to a BCR-ABL inhibitor” (The Regents of the University of California, priority 2011, dated 2018)

Legend:
[1] = system: BC LSC (human BC CML CD34+CD38+ progenitors); experiment: BC LSC engraftment in vivo (FACS) in mice transplanted with human BC CML CD34+ cells; design: species or system RAG2−/−γc−/− mice; details: for Mean (SEM) engraftment of CD34+CD38+ cells, Blood / Mean (SEM) engraftment of CD34+CD38+ cells, Marrow / Mean (SEM) engraftment of CD34+CD38+ cells, Spleen: 2 weeks; for effect on marrow LSC engraftment compared to vehicle treated controls: lower doses: sabutoclax 1.25 mg/kg, dasatinib 25 mg/kg
Source text: (§1) Immunocompromised RAG2^−/−yc^−/− mice were bred and maintained in the University of California San Diego Moores Cancer Center vivarium. Neonatal mice were transplanted intrahepatically with 50,000-200,000 CD34^+ cells according to our previously published methods (see Jaiswal, S. et al. cited above and Jamieson, C. H., et al. cited above). Transplanted mice were screened for tumor formation or human engraftment in peripheral blood by FACS at 6-8 weeks post-transplant. Upon detection of tumors, peripheral blood engraftment, or at 8-12 weeks post-transplant engrafted mice were treated for 2 weeks with dasatinib (daily, 50 mg/kg/day in 50% PEG, 50% PBS by oral gavage), sabutoclax (3 days per week, 5 mg/kg/day in 10% EtOH, 10% Cremaphor EL (Sigma Aldrich) 80% PBS by IP injection), or drug vehicles. Twenty-four hours post-treatment (10-14 weeks post-transplant), mice were euthanized and single cell suspensions of hematopoietic tissues were analyzed for human engraftment by FACS as described previously (see Jaiswal, S. et al. and Jamieson, C. H., et al. cited above). For in vivo combination studies, dasatinib was used at 25 or 50 mg/kg while sabutclax was used at 1.25 or 2.5 mg/kg with the same dosing regimen described above. For serial transplantation, a mix of whole mouse bone marrows was made from mice in the same treatment group. Total bone marrow cells were then counted by using Guava ViaCount Reagent and analysis on a Guava PCA system (Millipore), and transplanted in equal numbers into secondary neonatal recipients by intrahepatic injection. 250,000 whole bone marrow cells per mouse were injected.

BC LSC = experiment: Serial transplantation of treated bone marrow into secondary recipients, survival; assay type: in vivo, RAG2−/−γc−/− mice
Source text: as §1

BCL2 and MCL1 = experiment: Bone marrow BCL2, MCL1 and Ki67 IHC analysis of treated engrafted marrow; assay type: in vivo, RAG2−/−γc−/− mice; details: following sabutoclax treatment; data not shown
Procedure: For IHC, femurs were harvested from transplanted, treated animals, fixed and decalcified in Cal-Ex II (Fisher Scientific, Fair Lawn, N.J.) for 48 hrs, followed by standard tissue processing, paraffin-embedding and sectioning. Paraffin tissue sections were deparaffinized, rehydrated, and boiled in antigen retrieval solution (BD, California) (pH 6.0) for 10 min to retrieve antigen. Tissues were blocked with 5% bovine serum albumin (BSA) and 0.25% Triton X-100 in PBS for 30 min and incubated with primary antibody in PBS with 1% BSA at 4° C. for 16 h. Primary antibodies used were human CD45 (Abcam) and ki67 (BD). IHC staining was then carried out with LSAB System-HRP Kit (Dako Cytomation, Hamburg, Germany) according to manufacturer's protocol using methyl green (Sigma Aldrich) as counterstaining. […] All sections were mounted before examination using a Nikon Eclipse E600 microscope. […]
Bone specimens were fixed and mildly decalcified in Bouin's solution (Sigma-Aldrich, St. Louis, Mo.) for 8 h at room temperature, then postfixed in zinc-containing buffered formalin (Z-Fix; Anatech Ltd., Battle Creek, Mich.) for 3 days at 4° C., and embedded in paraffin. […] The Spectrum Analysis algorithm package and ImageScope analysis software (version 9; Aperio Technologies, Inc.) were applied to quantify IHC stainings.

marrow-engrafted BC LSC = experiment: FACS cell cycle analysis (Ki-67/7-AAD) of bone marrow engrafted BC CML cells; assay type: in vivo, RAG2−/−γc−/− mice; details: FIG. 7
Source text: Single cell suspensions of bone marrow cells from mice treated with sabutoclax or vehicle were immunostained with Alexa405-conjugated anti-human CD45 (Invitrogen), Alexa647-anti-human CD38 (Ab Serotec) and biotin-anti-human CD34 (Invitrogen) plus Alexa488-strepavidin (Invitrogen) in 2% fetal bovine serum/PBS-followed by live cell staining using the LIVE/DEAD® Fixable Near-IR Dead Cell Stain Kit (Invitrogen). Surface stained cells were then fixed in 70% ethanol overnight. […] Stained samples were analyzed using a FACSAria and FlowJo.

BC LSC-engrafted marrow = experiment: TUNEL apoptosis analysis of engrafted bone marrow; assay type: in vivo, RAG2−/−γc−/− mice; details: following sabutoclax treatment
Source text: For apoptosis analysis, bone marrows are stained using the ApopTag fluorescein in situ TUNEL apoptosis detection kit (Chemicon, #S7110) following the manufacturer's protocol. Sections are mounted as above. Images are acquired using an Applied Imaging Ariol SL-50 automated scanning microscope and image analysis system.

[2] = High dose treatment (sabutoclax 2.5 mg/kg, dasatinib 50 mg/kg)
[3] = Low dose treatment (sabutoclax 1.25 mg/kg, dasatinib 25 mg/kg)

| Structure (SMILES) | Mean (SEM) engraftment of CD34+CD38+ cells, Blood [1, 2] | Mean (SEM) engraftment of CD34+CD38+ cells, Marrow [1, 2] | Mean (SEM) engraftment of CD34+CD38+ cells, Spleen [1, 2] | Mean (SEM) engraftment of CD34+CD38+ cells, Blood [1, 3] | Mean (SEM) engraftment of CD34+CD38+ cells, Marrow [1, 3] | Mean (SEM) engraftment of CD34+CD38+ cells, Spleen [1, 3] | effect on marrow LSC engraftment compared to vehicle treated controls [1] | 2° TP - Median survival (BC LSC; High dose treatment) | 2° TP - Median survival (BC LSC; Low dose treatment) | BCL2 and MCL1 immunopositive cells in BC LSC-engrafted marrow (BCL2 and MCL1) | G2/S cells in engrafted marrow (marrow-engrafted BC LSC) | LSC engraftment in all hematopoietic tissues including bone marrow ([1]; 5 mg/kg, FIG. 5b) | TUNEL+ apoptotic cells in engrafted marrow (BC LSC-engrafted marrow) |
| --- | --- | --- | --- | --- | --- | --- | --- | --- | --- | --- | --- | --- | --- |
| Cc1nc(Nc2ncc(C(=O)Nc3c(C)cccc3Cl)s2)cc(N2CCN(CCO)CC2)n1 [Dasatinib, dasatinib] | 3.1 (2.4) | 21.23 (2.4) | 0.2 (0.07) | 2.1 (0.9) | 28.8 (10.7) | 2.0 (0.8) | no significant effect | 43 days | 79 days | – | – | – | – |
| Cc1cc2c(C(=O)NC[C@H](C)c3ccccc3)c(O)c(O)cc2c(O)c1-c1c(C)cc2c(C(=O)NC[C@H](C)c3ccccc3)c(O)c(O)cc2c1O [Sabutoclax] | 24.5 (17.6) | 30.01 (23.2) | 5.1 (1.5) | 11.0 (3.8) | 34.2 (12.5) | 12 (2.7) | no significant effect | 45 days | 74 days | reduced amount | slight increase | significantly reduced | increased |
